“Also recorded” adds a separate entry of the source.
Experiments:
LRRK2 dimerization = target: T1, LRRK2 dimerization (Homo sapiens, UniProt Q5S007); experiment: In vitro dimerization assay (co-immunoprecipitation of GFP- and Strep-tagged LRRK2); type: biochemical; settings: 10 μM peptide overnight, HEK293 lysates
T1 construct: co-transfecting HEK293 cells with GFP-tagged and strep-tagged full-length LRRK2; expressed in transfected cells; host or cells: HEK293
Procedure: In vitro dimerization assay. HEK293 cells were co-transfected using JetPEI reagent (Polyplus transfection) with pcDNA3.1_GFP.LRRK2 and pDEST(N)SF.LRRK2. Cells were cultivated for 48 hours. The cells were then lysed with 200 μL ice-cold lysis buffer (10 mM Tris/HCl pH 7.5; 150 mM NaCl; 0.5 mM EDTA; 0.5% NP-40), complete EDTA-free protease inhibitor cocktail (Sigma-Aldrich Cat #11836170001) and Protease Inhibitor Cocktail, Sigma (cat. no. P-2714). The mixture was incubated and rotated on ice for 30 minutes with extensively pipetting every 10 minutes. Lysate was cleared by centrifugation for 10 min at 14000 g for 10 min at 4° C. The supernatant was transferred to a precooled tube and 300 μL dilution buffer (same as lysis buffer without NP-40) was added to the lysate. Peptides were added to a final concentration of 10 μM and the mixture was allowed to rotate at 4° C. overnight. GFP-LRRK2 was immunoprecipitated with Magnetic GFP nanotrap beads (ChromoTek). […] The membranes were coated with enhanced chemiluminescent (ECL) reagent (WesternSure PREMIUM, Li-COR biosciences), and proteins were detected by C-Digit Imaging System (Li-COR Biosciences).
To determine whether LCIP1 and LRIP4 could effectively disrupt LRRK2 dimerization, we monitored disruption of dimerization using two different tagged versions of LRRK2. […]

RAW 264.7 cells = experiment: ROS production assay (CellROX, zymosan); type: cell-based; settings: 10 μM peptide 9 hours, then Zymosan 50 μg/mL 30 mins
Procedure: ROS production assay. Flow cytometry was used to measure reactive oxygen species (ROS) through fluorescence emission of the CellROX deep red dye (Life Technologies). RAW264.7 cells (ATCC® SC-6003™) were plated at 120,000/well in a 96-well low-adherence tissue culture plate (Costar).

[1] = test system: LRRK2 dimers (WT/WT, WT/G2019S, G2019S/G2019S); experiment: Proximity biotinylation ELISA-based LRRK2 dimerization assay in cells; type: cell-based; settings: for LRRK2 dimerization in cells (FIG. 8): 0.1, 1 and 10 μM fluorescently labeled peptide; for LRRK2 dimerization, wild-type homodimers and wild-type/G2019S heterodimers: HEK293 cells
Sequence of LRRK2 dimers (WT/WT, WT/G2019S, G2019S/G2019S) (Q5S007 1328-1878 limits assumed, stated change not applied): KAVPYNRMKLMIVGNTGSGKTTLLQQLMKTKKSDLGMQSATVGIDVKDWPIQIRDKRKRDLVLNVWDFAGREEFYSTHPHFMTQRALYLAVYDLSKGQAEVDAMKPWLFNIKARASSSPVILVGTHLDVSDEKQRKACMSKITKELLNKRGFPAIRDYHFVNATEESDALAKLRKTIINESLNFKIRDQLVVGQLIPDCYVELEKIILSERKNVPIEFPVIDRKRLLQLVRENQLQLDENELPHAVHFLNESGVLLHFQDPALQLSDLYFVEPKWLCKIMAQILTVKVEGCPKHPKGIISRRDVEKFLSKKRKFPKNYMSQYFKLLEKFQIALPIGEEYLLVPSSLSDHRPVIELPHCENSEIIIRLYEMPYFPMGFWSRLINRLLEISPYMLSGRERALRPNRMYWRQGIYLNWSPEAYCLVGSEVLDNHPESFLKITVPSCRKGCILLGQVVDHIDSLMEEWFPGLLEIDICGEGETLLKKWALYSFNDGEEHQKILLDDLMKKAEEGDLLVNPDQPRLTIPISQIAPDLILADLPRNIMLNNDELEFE
Text: Proximity biotinylation of LRRK2. To purify LRRK2 dimers, we relied on the proximity biotinylation technique recently described (E. Leandrou et al., Kinase activity of mutant LRRK2 manifests differently in hetero-dimeric vs. homo-dimeric complexes. Biochem J 476, 559-579 (2019); and M. Fernandez-Suarez, T. S. Chen, A. Y. Ting, Protein-protein interaction detection in vitro and in cells by proximity biotinylation. J Am Chem Soc 130, 9251-9253 (2008)). Briefly, two cDNAs were created encoding LRRK2 fusions with biotin ligase (BirA; N-term, Flag-tagged) and an acceptor peptide (AP, N-term; c-Myc tagged), and over-expressed in HEK293T cells grown in biotin-depleted medium (OptiMEM+2% FBS). The following day, the cells were treated with the indicated concentrations of the stapled peptides: LRIP4 and LCIP1. Stock peptides, fluorescently tagged, were diluted in serum-free medium, and added every 24 hours after transfection. After 48 hours following initiation of treatment (i.e. 72 hr of total expression), the cells were extensively washed in PBS, given a brief biotin pulse (50 μM, 5 min, 37° C.), followed by another 3× washes in PBS, centrifuged and the pellet snap frozen in a dry-ice/MeOH bath. Following lysis, extracts were diluted in TBST/BSA (10 mM Tris HCl, pH 7.6; 100 mM NaCl; 0.1% Triton X-100; 1% BSA) and 2.5 μg of protein loaded in parallel ELISA plates, coated with streptavidin (SA; to capture biotinylated LRRK2 dimers) and anti-LRRK2 (to quantify LRRK2 over-expression). To detect and quantify dimeric LRRK2, SA-coated plates were incubated with HRP-conjugated anti-Flag antibodies (1 hour, room temperature). Since the biotin tag is only present on AP-LRRK2 fusions, and the flag epitope tag is located on the BirA-LRRK2 fusion, by using HRP-Flag as our detector reagent, we are specifically labeling dimeric LRRK2 present in the ELISA plates. On the parallel anti-LRRK2 coated plates (clone c41-2), total over-expressed LRRK2 was quantified using HRP-LRRK2 antibodies (clone N241) and used to normalize the relative amounts of dimeric LRRK2. The following LRRK2 dimers were assessed: WT/WT homodimers, WT/G2019S, and G2019S/G2019S homodimers.
In this assay, HEK293T cells expressing either wild-type or G2019S mutants of LRRK2 fusions, either with the biotin ligase BirA or the acceptor peptide AP, were treated with increasing concentrations (0.1, 1, and 10 μM) of each fluorescently labeled peptide.

GFP-tagged LRRK2 = target: T2, GFP-tagged LRRK2 (Homo sapiens, UniProt Q5S007); experiment: Localization of GFP-tagged LRRK2 by confocal microscopy; type: cell-based; settings: HEK293 cells, 10 μM peptide, 12 h
T2 construct: co-transfecting HEK293 cells with GFP-tagged and strep-tagged full-length LRRK2; expressed in transfected cells; host or cells: HEK293
T2 sequence (Q5S007 whole entry): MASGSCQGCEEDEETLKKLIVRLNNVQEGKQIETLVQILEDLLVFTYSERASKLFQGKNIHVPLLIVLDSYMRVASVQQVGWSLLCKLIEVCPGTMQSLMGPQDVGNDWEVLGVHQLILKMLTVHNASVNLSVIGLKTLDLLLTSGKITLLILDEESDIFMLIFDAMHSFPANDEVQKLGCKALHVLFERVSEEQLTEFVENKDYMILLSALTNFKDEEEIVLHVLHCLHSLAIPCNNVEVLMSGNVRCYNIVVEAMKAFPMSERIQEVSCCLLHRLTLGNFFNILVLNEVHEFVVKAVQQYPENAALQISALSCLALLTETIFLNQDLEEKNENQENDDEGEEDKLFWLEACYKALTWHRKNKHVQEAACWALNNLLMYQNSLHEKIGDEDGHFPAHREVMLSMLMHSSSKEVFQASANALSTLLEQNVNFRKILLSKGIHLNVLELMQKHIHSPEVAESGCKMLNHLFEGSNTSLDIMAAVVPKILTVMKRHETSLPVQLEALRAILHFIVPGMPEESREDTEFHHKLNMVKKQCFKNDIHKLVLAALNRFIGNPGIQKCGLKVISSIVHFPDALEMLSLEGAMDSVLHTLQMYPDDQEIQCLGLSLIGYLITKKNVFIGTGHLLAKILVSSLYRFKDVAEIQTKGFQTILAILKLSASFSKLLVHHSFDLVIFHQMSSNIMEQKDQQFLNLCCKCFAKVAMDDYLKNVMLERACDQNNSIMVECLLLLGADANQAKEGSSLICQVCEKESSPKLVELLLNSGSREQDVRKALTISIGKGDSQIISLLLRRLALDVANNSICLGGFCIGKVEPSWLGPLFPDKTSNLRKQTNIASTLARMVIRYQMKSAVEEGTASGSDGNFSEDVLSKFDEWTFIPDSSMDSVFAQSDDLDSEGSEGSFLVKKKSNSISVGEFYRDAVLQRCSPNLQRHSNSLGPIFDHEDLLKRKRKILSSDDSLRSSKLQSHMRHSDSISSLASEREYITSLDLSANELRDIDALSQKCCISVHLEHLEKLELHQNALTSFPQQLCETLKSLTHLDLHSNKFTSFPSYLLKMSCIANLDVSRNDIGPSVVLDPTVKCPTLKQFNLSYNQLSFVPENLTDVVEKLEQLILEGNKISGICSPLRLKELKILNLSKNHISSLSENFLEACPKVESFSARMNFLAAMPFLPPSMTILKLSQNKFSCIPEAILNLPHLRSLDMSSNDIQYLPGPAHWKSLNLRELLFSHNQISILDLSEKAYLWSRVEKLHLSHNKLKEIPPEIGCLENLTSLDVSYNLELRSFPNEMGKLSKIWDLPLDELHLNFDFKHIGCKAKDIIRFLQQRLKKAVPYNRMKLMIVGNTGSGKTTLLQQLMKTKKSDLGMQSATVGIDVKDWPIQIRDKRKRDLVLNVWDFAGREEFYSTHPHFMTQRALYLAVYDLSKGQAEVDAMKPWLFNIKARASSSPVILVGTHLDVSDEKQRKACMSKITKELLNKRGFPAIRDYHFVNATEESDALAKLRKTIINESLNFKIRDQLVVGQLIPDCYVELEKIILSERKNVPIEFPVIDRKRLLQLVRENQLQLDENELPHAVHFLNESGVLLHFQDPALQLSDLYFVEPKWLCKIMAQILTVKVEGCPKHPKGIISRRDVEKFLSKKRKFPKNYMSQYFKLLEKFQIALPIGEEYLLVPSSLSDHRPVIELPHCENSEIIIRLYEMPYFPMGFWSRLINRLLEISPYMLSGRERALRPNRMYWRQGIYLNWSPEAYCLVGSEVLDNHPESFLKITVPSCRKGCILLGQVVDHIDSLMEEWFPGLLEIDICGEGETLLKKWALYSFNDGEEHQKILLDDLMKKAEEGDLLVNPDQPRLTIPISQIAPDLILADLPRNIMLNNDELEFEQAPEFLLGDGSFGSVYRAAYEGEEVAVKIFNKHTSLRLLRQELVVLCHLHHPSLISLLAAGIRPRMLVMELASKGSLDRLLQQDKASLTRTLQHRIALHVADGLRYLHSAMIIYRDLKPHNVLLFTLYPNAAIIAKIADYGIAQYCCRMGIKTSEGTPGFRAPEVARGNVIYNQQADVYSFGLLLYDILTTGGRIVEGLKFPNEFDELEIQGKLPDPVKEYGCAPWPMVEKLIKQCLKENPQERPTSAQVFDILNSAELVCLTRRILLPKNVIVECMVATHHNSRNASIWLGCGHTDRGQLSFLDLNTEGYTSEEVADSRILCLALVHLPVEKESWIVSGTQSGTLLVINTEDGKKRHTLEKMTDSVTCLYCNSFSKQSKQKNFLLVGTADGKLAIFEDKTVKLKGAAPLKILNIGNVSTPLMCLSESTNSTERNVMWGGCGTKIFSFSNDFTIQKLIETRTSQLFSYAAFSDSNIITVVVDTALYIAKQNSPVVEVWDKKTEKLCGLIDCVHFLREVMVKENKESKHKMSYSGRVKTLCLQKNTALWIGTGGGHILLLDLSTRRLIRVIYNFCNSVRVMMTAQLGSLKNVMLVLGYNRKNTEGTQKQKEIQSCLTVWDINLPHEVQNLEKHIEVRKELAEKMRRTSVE
Text: Next, we analyzed the effects of these inhibitor peptides on LRRK2 localization.

T1 sequence (Q5S007 whole entry): as above

Row | Substance | LRRK2 dimerization (Strep-LRRK2 co-precipitated with GFP-LRRK2) (LRRK2 dimerization) | zymosan induced ROS production (RAW 264.7 cells) | LRRK2 dimerization in cells (FIG. 8) [1] | LRRK2 dimerization, wild-type homodimers and wild-type/G2019S heterodimers [1] | LRRK2 localization after peptide treatment (GFP-tagged LRRK2) | LRRK2 dimerization, G2019S/G2019S homodimers and G2019S/wild-type heterodimers ([1]; HEK293(T) cells, 10 mM peptide as printed)
1 | COR-domain stapled peptide formed from SEQ ID NO. 16 KGEGEXLLKXWK, X = (S)-2-(4′-pentenyl)alanine; PEG3 linker, FAM or biotin label (hydrocarbon staple; PEG3 linker; FAM or biotin; COR domain peptide; (6)..(6) Xaa is (S)-2-(4′-pentenyl)alanine; (10)..(10) Xaa is (S)-2-(4′-pentenyl)alanine) [LCIP1] | reduced the co-immunoprecipitation of the two LRRK2 proteins; also recorded: able to disrupt LRRK2 dimerization; also recorded: reduced dimerization; also recorded: inhibitory effect on LRRK2 | no statistically significant consequence | failed to consistently lead to a reduction in LRRK2 dimerization; also recorded: no statistically significant effect on dimerization | no statistically significant effects on dimerization | LRRK2 maintained its cytoplasmic distribution; also recorded: did not induce mislocalization of LRRK2 | –
2 | Roc-domain stapled peptide formed from SEQ ID NO. 6 DEKQRKAC(Nle)SKITKEXLNKX, X = (S)-2-(4′-pentenyl)alanine; PEG3 linker, FAM or biotin label (DEKQRKACXSKITKEXLNKX; hydrocarbon staple; Nle; PEG3 linker; FAM or biotin; ROC domain petide; (9)..(9) Xaa is norleucine; (16)..(16) Xaa is (S)-2-(4′-pentenyl)alanine; (20)..(20) Xaa is (S)-2-(4′-pentenyl)alanine) [LRIP4] | reduced the co-immunoprecipitation of the two LRRK2 proteins; also recorded: able to disrupt LRRK2 dimerization with LRIP4 having the most pronounced effect; also recorded: reduced dimerization; also recorded: inhibitory effect on LRRK2 | significant reduction of zymosan induced ROS production to an extent comparable to MLi-2 | effectively disrupts LRRK2 dimerization in cells | inhibit dimerization of both wild-type LRRK2 homodimers and wild-type/G2019S LRRK2 heterodimers | LRRK2 maintained its cytoplasmic distribution; also recorded: did not induce mislocalization of LRRK2 | statistically significant reduction in both G2019S/G2019S and G2019S/wild-type LRRK2 dimers; also recorded: inhibit dimerization of both wild-type/G2019S LRRK2 heterodimers or G2019S LRRK2 homodimers
